The text below walks through data of US11786494B2, “Methods of modulation of branched chain acids and uses thereof” (Baylor College of Medicine, priority 2009, dated 2023).

The target of one series is T1, BCKDC (Homo sapiens, UniProt P12694+P21953).
T1 sequence (P12694 46-445): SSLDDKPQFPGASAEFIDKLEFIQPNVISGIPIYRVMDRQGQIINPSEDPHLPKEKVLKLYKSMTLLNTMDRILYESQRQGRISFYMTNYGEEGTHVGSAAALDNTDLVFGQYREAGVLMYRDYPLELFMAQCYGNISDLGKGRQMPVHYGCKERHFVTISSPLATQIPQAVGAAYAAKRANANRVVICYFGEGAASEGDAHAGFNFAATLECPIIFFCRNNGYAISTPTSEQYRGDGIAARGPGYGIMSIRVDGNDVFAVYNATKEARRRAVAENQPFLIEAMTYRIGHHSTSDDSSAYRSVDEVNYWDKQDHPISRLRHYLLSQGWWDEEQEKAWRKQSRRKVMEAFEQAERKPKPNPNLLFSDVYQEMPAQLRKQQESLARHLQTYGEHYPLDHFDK
T1 sequence (P21953 51-392): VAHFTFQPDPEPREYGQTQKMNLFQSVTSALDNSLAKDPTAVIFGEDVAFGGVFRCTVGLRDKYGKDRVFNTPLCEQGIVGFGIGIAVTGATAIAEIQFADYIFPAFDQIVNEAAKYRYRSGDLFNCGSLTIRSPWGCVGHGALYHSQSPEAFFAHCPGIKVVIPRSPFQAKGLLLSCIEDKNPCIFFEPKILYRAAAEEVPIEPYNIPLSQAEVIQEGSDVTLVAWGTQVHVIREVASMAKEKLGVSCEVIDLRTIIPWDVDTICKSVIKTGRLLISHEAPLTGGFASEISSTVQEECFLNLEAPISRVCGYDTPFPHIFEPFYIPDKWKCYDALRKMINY
The series is described as follows: Leucine oxidation in lymphoblast cells in presence of CIC. Type of series: cell-based. Details: Transformed lymphoblast cell lines were available from all 5 MSUD patients and from 2 controls to measure BCKDC activity; endogenous in cells. As to conditions: both control cells, CIC 1 mM. The procedure: FIGS. 8A-8C. FIGS. 8A and 8B show leucine oxidation in presence of CIC in lymphoblast cells from control subjects (C-660, C-661) and MSUD patients (P-1, -2, -3, -4, -5) untreated or treated with 1 mM phenylbutyrate for 48 h. Leucine oxidation was measured by using radioactive assay as described in Materials and Methods and is expressed in pmol CO2 released/min/mg protein. CIC was added to all reactions in 1 mM concentration. Values are means±SD (n=3), * p≥0.05, **p≥0.01. […] Images are representative of two independent experiments.
Because phenylbutyrate affects E1α phosphorylation state in vivo (see FIG. 5), leucine oxidation was measured in the same cell lines as in FIG. […] with CIC in the assay. […] Changes in BCAT isoenzyme activity also impacts BCKA production, in specific cases. All patient cell lines accumulated more KIC than observed in control cell lines.

Series [1] has as its target branched-chain alpha-keto acid dehydrogenase kinase (BDK) (Homo sapiens, UniProt O14874). As to conditions: Harris et al., 1982; cited from earlier work.
The subject of series [2] is E1α-phospho/E1α, E2, BCATm, BCATc. The series is described as follows: Western blotting of BCKD complex and BCAT isozymes in lymphoblast cells. The format is cell-based, human. As to conditions: for phosphorylation state of E1α: CIC 1 mM 2 h alone, or together with phenylbutyrate. Background: A western blot detects proteins with antibodies after separation by electrophoresis.

The conditions of series [3]: cited from earlier work; for time to peak concentration: metabolites after a dose of 5 g of phenylbutyrate; for mean peak concentration: metabolites after oral dosing of phenylbutyrate; for elimination half-life: oral phenylbutyrate, estimated.
Substrate in series [4]: O=C(O)CCCc1ccccc1
The experiment in a line: E1 catalyzed decarboxylase activity (DCPIP assay). Type of series: biochemical. As to conditions: other: E1 catalyzed decarboxylase activity, [+] Phenylbutyrate. The procedure: (§1) To determine the effect of phenylbutyrate on individual BCAA catabolic enzymes, activities of mitochondrial branched chain amino transferase (BCATm) and BCKDC enzymes were measured with and without phenylbutyrate using purified recombinant enzymes. BCATm generates the BCKA products that are elevated in MSUD and are the substrates for BCKDC. BCATm activity was measured at pH 8.0 and 298 K as described in Example 2. Kinetics of the E1 decarboxylase reaction with and without phenylbutyrate were determined in the presence of an artificial electron acceptor 2, 6-dichlorophenolindophenol (DCPIP). The assay mixture contained 100 mM potassium phosphate, pH 7.5, 2.0 mM MgCl2, 0.2 mM thiamin diphosphate (ThDP) and 0.1 mM DCPIP. The rate of decarboxylation at 30° C. was measured by monitoring the reduction of the dye at 600 nm (24, 25). For the overall BCKDC activity assay, the enzymes were exchanged into phosphate buffer (30 mM potassium phosphate, pH 7.5) containing 5 mM DTT using a PD-10 column and the enzyme concentrations were calculated from the absorption maxima at 280 nm. The protein complex was reconstituted with E1, lipoylated E2 (lip-E2) and E3 at a molar ratio of 12:1:55, in which lip-E2 exists as a 24-mer. The assay mixture contained 30 mM potassium phosphate pH 7.5, 100 mM NaCl, 3 mM NAD^+, 0.4 mM CoA, 2 mM MgCl2, 2 mM DTT, 0.1% Triton X-100, and 2 mM ThDP. The overall reaction was monitored by formation of NADH at 340 nm. The apparent rate constants (kapp) at different substrate concentrations for all of the above assays were determined from the absorption changes at the individual wavelength maximum. The kapp rate constants were fit using the following equation: kapp=kcat[S]/(Km+[S])

Substrate in series [5]: O=C(O)CCCc1ccccc1
The series is described as follows: Overall BCKDC activity assay (reconstituted E1, lip-E2, E3; NADH formation). The format is biochemical. The note with it: other: Activity of BCKDC, [+] Phenylbutyrate. The procedure: as §1

Where [6] appears, read: substrate α-ketoisocaproate (KIC).
[7] abbreviates: substrate α-ketoisovalerate (KIV).

A word on the Km: it is the concentration of substrate that gives half-maximal velocity. As a reminder, the kcat is the number of substrate molecules converted per active site and unit of time at saturation.

Regarding `CC(C)CC(Cl)C(=O)O` (stereo not drawn) [CIC, Alpha-chloroisocaproate], on BCKDC, the “leucine oxidation activity in the presence of CIC vs alone” value was “higher activity”. In addition, in series [1], the “inhibition of BDK” value is on record as “known inhibitor”. The “phosphorylation state of E1α” value is given as “decreases” in series [2] (both controls and patients 4 and 5); “no effect” in series [2] (patients 1, 2 and 3). For the same molecule, in series [2] (lymphoblasts, CIC), the “E2 or BCAT isozyme levels” value is given as “did not have any effect”.
As for `O=C(O)Cc1ccccc1` [phenylacetate], in series [3], the “time to peak concentration” value is “around 3.5 h”, the mean peak concentration was 45.3 µg/mL and the elimination half-life was 1.3 h.
In the case of `NC(=O)CC[C@H](NC(=O)Cc1ccccc1)C(=O)O` [phenylacetateglutamine], in series [3], the “time to peak concentration” value is “around 3.5 h”, the mean peak concentration is 62.8 µg/mL and the elimination half-life is listed as 2.4 h.

B1: E1 (unphosphorylated) of BCKDC (Homo sapiens) (protein)
chain 1: T1 sequence (P12694 46-445)
chain 2: T1 sequence (P21953 51-392)
Consider B1, for which the Km in series [4] (with KIC as substrate) was found to be 24.0 ± 2.0 µM; in series [4] (with KIV as substrate), 22.0 ± 2.0 µM; in series [4] (with KMV as substrate), 21.0 ± 3.0 µM. Moreover, the kcat in series [4] (with KIC as substrate) is 0.337 ± 0.025 s⁻¹; in series [4] (with KIV as substrate) it was 0.417 ± 0.0333 s⁻¹.

B2: BCKDC (Homo sapiens) (protein)
chain 1: T1 sequence (P12694 46-445)
chain 2: T1 sequence (P21953 51-392)
For B2, the Michaelis constant (Km) in series [5] (substrate α-keto-β-methylvalerate (KMV)) worked out at 50.0 ± 3.0 µM; in series [5] (setting [6]), 41.0 ± 5.0 µM; in series [5] (setting [7]), 40.0 ± 5.0 µM. Moreover, the values for the kcat in series [5] (setting [6]) and in series [5] (setting [7]) were 4.25 ± 0.167 s⁻¹ and 5.15 ± 0.25 s⁻¹, respectively.
